The target of one assay is T1, α1b (Hamster) (Mesocricetus auratus, UniProt P18841).
T1 sequence (P18841 1-515): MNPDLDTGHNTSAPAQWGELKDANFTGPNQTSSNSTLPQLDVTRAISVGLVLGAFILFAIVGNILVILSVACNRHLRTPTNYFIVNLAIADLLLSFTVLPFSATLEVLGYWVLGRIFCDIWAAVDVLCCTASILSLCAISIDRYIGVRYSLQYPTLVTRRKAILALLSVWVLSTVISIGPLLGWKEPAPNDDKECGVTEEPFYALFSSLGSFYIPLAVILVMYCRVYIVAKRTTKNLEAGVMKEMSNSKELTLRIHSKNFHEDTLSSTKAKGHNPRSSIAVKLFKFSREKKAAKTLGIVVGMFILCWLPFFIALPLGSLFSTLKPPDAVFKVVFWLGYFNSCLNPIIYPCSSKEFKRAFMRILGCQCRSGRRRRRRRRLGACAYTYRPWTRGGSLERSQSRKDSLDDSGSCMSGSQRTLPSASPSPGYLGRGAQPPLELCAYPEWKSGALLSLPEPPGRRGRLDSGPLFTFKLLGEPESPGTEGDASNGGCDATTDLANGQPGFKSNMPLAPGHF
The assay can be described thus: Radioligand binding, displacement of [3H]-prazosin from cloned α1b (hamster) expressed in LTK cells. Particulars: [3H]-prazosin 0.2 nM; cloned hamster α1b in LTK cell membranes; 25° C., 50 minutes. Background: In a radioligand displacement assay an active substance lowers the binding of a labelled ligand.

For another assay, the target named is T2, α1d (rat) (Rattus norvegicus, UniProt P23944).
T2 sequence (P23944 1-561): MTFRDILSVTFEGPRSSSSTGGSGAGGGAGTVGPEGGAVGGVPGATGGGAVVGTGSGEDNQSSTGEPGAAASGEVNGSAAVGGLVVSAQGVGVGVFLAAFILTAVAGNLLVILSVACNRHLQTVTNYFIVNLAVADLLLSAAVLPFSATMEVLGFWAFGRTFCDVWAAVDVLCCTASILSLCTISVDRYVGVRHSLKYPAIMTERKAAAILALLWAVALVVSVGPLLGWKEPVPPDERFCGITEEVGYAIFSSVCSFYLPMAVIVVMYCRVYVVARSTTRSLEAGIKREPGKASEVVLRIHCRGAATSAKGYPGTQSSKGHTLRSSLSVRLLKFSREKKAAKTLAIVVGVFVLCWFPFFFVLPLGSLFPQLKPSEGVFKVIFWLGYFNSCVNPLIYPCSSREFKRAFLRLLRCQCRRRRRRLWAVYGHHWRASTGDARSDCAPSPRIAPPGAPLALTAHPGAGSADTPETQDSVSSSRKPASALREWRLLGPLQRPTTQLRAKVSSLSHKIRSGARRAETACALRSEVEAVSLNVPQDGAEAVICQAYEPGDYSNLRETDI
The assay can be described thus: Radioligand binding, displacement of [3H]-prazosin from cloned α1d (rat) expressed in LTK cells. The conditions noted are these: [3H]-prazosin 0.2 nM; cloned rat α1d in LTK cell membranes; 25° C., 50 minutes.

The target of a further assay is T3, α1a (Rat) (Rattus norvegicus, UniProt P43140).
T3 sequence (P43140 1-466): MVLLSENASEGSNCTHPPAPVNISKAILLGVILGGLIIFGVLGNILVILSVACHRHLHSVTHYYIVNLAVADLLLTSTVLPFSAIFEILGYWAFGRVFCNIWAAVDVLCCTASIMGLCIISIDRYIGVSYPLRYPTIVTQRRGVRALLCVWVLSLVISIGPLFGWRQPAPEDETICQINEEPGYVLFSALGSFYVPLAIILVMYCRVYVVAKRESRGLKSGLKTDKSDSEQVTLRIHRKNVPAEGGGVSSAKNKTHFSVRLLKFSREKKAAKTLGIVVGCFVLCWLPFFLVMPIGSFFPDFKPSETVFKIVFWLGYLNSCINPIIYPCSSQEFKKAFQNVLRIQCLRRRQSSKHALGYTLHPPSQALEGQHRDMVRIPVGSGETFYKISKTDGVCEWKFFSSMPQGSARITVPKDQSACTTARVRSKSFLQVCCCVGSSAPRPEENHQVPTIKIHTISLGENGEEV
Description: Radioligand binding, displacement of [3H]-prazosin from cloned α1a (rat) expressed in LTK cells. The conditions noted are these: [3H]-prazosin 0.2 nM; cloned rat α1a in LTK cell membranes; 25° C., 50 minutes.

The next assay addresses T4, α1a (Bovine) (Bos taurus, UniProt P18130).
T4 sequence (P18130 1-466): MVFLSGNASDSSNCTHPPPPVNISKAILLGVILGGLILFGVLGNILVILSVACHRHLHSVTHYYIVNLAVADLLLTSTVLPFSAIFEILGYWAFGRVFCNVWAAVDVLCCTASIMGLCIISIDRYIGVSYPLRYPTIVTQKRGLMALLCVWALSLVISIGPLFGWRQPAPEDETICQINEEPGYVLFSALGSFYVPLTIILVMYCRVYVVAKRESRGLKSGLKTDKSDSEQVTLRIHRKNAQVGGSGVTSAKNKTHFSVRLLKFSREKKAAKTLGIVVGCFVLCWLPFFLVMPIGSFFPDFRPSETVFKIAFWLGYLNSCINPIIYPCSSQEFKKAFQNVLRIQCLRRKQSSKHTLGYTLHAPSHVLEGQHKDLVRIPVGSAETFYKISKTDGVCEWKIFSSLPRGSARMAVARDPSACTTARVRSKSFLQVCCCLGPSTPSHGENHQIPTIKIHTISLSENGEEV
The assay can be described thus: Radioligand binding, displacement of [3H]-prazosin from cloned α1a (bovine) expressed in LTK cells. The conditions noted are these: [3H]-prazosin 0.2 nM; cloned bovine α1a in LTK cell membranes; 25° C., 50 minutes.

Structures can show the parent of a compound that is named as a salt.

In the case of `COc1cccc([C@@H]2CCN(CCn3c(=O)[nH]c4c(sc5ccccc54)c3=O)C2)c1` [Example 26, (S)-3-[2-[3-(3-methoxyphenyl)-1-pyrrolidinyl]ethyl]-[1]benzothieno[3,2-d]pyrimidine-2,4(1H,3H)-dione, Monohydrochloride], the Ki (commonly a measure of affinity in units of concentration, obtained from inhibition or displacement) at α1b (Hamster) amounted to 10.7 nM; on α1d (rat), 3.04 nM; on α1a (Rat), 6.79 nM; at α1a (Bovine) it was 1.24 nM.
With `COc1cccc([C@H]2CCN(CCCCn3c(=O)[nH]c4c(sc5cccnc54)c3=O)C2)c1` [Example 22, (R)-3-[4-[3-(3-methoxyphenyl)-1-pyrrolidinyl]butyl]pyrido[2',3':4,5]thieno[3,2-d]pyrimidine-2,4(1H,3H)-dione, Dihydrochloride], the Ki on α1b (Hamster) is 18.4 nM; at α1d (rat) it was 11.5 nM; on α1a (Rat), 5.11 nM; at α1a (Bovine), 1.52 nM.
For `COc1ccccc1[C@H]1CCN(CCCCN2C(=O)c3ccccc3S2(=O)=O)C1` [Example 17, (R)-2-[4-[3-(2-methoxyphenyl)-1-pyrrolidinyl]butyl]-1,2-benzoisothiazol-3(2H)-one, 1,1-dioxide Monohydrochloride], the Ki came to 1.1 nM at α1b (Hamster), 0.22 nM at α1d (rat), 0.13 nM on α1a (Rat) and 0.03 nM at α1a (Bovine).
Consider `COc1ccccc1[C@H]1CCN(CCCCCn2c(=O)[nH]c3c(sc4cccnc43)c2=O)C1` [Example 7, (R)-3-[5-[3-(2-Methoxyphenyl)-1-pyrrolidinyl]pentyl]pyrido[2',3':4,5]thieno[3,2-d]pyrimidine-2,4(1H,3H)-dione, Dihydrochloride], for which the Ki on α1b (Hamster) was found to be 4.86 nM; on α1d (rat), 2.13 nM; on α1a (Rat), 2.11 nM; on α1a (Bovine), 0.18 nM.
Take `COc1ccccc1[C@H]1CCN(CCCCN2C(=O)c3ccccc3C2=O)C1` [Example 12, (R)-2-[4-[3-(2-methoxyphenyl)-1-pyrrolidinyl]butyl]-1H-isoindole-1,3(2H)-dione, Monohydrochloride]: the Ki at α1b (Hamster) turned out to be 0.96 nM; at α1d (rat), 0.28 nM; at α1a (Rat), 0.32 nM; on α1a (Bovine) it was 0.06 nM.
Taken in the same sequence, the figures for `COc1cccc([C@H]2CCN(CCn3c(=O)[nH]c4c(sc5ncccc54)c3=O)C2)c1` [Example 23, (R)-3-[2-[3-(3-methoxyphenyl)-1-pyrrolidinyl]ethyl]pyrido[3',2':4,5]thieno[3,2-d]pyrimidine-2,4(1H,3H)-dione, Dihydrochloride] were 331 nM, 86.4 nM, 134 nM and 27 nM.
Consider `COc1ccccc1[C@H]1CCN(CCCCCn2c(=O)[nH]c3c(sc4ncccc43)c2=O)C1` [Example 9, (R)-3-[5-[3-(2-methoxyphenyl)-1-pyrrolidinyl]pentyl]pyrido[3',2':4,5]thieno[3,2-d]pyrimidine-2,4(1H,3H)-dione, Dihydrochloride], for which the Ki on α1b (Hamster) amounted to 7.38 nM; at α1d (rat) it was 2.35 nM; on α1a (Rat), 3.3 nM; on α1a (Bovine), 0.32 nM.
Regarding `COc1ccccc1[C@H]1CCN(CCCCn2c(=O)[nH]c3c(sc4ccc(Cl)nc43)c2=O)C1` [Example 10, (R)-8-chloro-3-[4-[3-(2-methoxyphenyl)-1-pyrrolidinyl]butyl]pyrido[2',3':4,5]thieno[3,2-d]pyrimidine-2,4(1H,3H)-dione, Dihydrochloride], the Ki at α1b (Hamster) is 1.18 nM; at α1d (rat) it was 0.06 nM; at α1a (Rat), 0.22 nM; on α1a (Bovine), 0.05 nM.
As for `COc1cccc([C@H]2CCN(CCCn3c(=O)[nH]c4c(sc5cccnc54)c3=O)C2)c1` [Example 21, (R)-3-[3-[3-(3-methoxyphenyl)-1-pyrrolidinyl]propyl]pyrido[2',3':4,5]thieno[3,2-d]pyrimidine-2,4(1H,3 H)-dione, Dihydrochloride], the Ki is 70.7 nM at α1b (Hamster), 92.2 nM at α1d (rat), 27.3 nM at α1a (Rat) and 8 nM on α1a (Bovine).
For `COc1ccccc1[C@H]1CCN(CCCCn2c(=O)[nH]c3c(sc4cccnc43)c2=O)C1` [Example 6, (R)-3-[4-[3-(2-Methoxyphenyl)-1-pyrrolidinyl]butyl]pyrido[2',3':4,5]thieno[3,2-d]pyrimidine-2,4(1H,3H)-dione Dihydrochloride], in that order: 1.77 nM, 0.22 nM, 0.12 nM and 0.05 nM.
Taken in the same sequence, the figures for `COc1ccccc1[C@H]1CCN(CCCCN2C(=O)COc3ccccc32)C1` [Example 18, (R)-4-[4-[3-(2-methoxyphenyl)-1-pyrrolidinyl]butyl]-2H-1,4-benzoxazin-3(4H)-one, Monohydrochloride] were 1.02 nM, 0.66 nM, 0.46 nM and 0.21 nM.
In the case of `COc1ccccc1[C@@H]1CCN(CCn2c(=O)[nH]c3c(sc4cccnc43)c2=O)C1` [Example 27, (S)-3-[2-[3-(2-methoxyphenyl)-1-pyrrolidinyl]ethyl]pyrido[2',3':4,5]thieno[3,2-d]pyrimidine-2,4(1H,3 H)-dione, Dihydrochloride], the Ki at α1b (Hamster) was determined as 15.7 nM; on α1d (rat), 8.48 nM; at α1a (Rat) it was 14.4 nM; at α1a (Bovine), 2.46 nM.
`COc1ccccc1[C@@H]1CCN(CCn2c(=O)[nH]c3c(sc4ccccc43)c2=O)C1` [Example 25, (S)-3-[2-[3-(2-methoxyphenyl)-1-pyrrolidinyl]ethyl]-[1]benzothieno[3,2-d]pyrimidine-2,4(1H,3H)-dione Monohydrochloride]: the inhibition constant (Ki) stood at 5.61 nM at α1b (Hamster), 3.86 nM on α1d (rat), 9.33 nM on α1a (Rat) and 1.67 nM at α1a (Bovine).
`COc1ccccc1[C@H]1CCN(CCCCn2c(=O)[nH]c3c(sc4ccccc43)c2=O)C1` [Example 2, (R)-3-[4-[3-(2-Methoxyphenyl)-1-pyrrolidinyl]butyl]-[1]benzothieno[3,2-d]pyrimidine-2,4(1H,3H)-dione Monohydrochloride]: the Ki on α1b (Hamster) came to 0.62 nM; on α1d (rat), 0.03 nM; at α1a (Rat), 0.18 nM; on α1a (Bovine), 0.02 nM.
Take `COc1ccccc1[C@H]1CCN(CCCCn2c(=O)[nH]c3c(sc4ncccc43)c2=O)C1` [Example 8, (R)-3-[4-[3-(2-Methoxyphenyl)-1-pyrrolidinyl]butyl]pyrido[3',2':4,5]thieno[3,2-d]pyrimidine-2,4(1H,3H)-dione, Dihydrochloride]: the Ki worked out at 1.76 nM on α1b (Hamster), 0.09 nM on α1d (rat), 0.12 nM at α1a (Rat) and 0.06 nM at α1a (Bovine).

(Values after US6133275A, “3-phenylpyrrolidine alpha-1 adrenergic compounds” (Abbott Laboratories, priority 1998, dated 2000).)
